Experimental data taken from patent US9238631B2, “Radiolabeled amino acids for diagnostic imaging” (PIRAMAL IMAGING SA, priority 2011, dated 2016).

Tested on: NCI-H460 tumor
Assay: In vivo biodistribution in NCI-H460 tumor bearing mice
Design: Summary: organs / Summary: Carcass / Summary: faeces: unit not given here
Conditions: for Summary: urine: in %; for Summary: Recovery: in % (unit assumed)
Method in brief: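 Biodistribution of 18F-labeled compounds was assessed in female NMRI (nu/nu) mice bearing NCI-H460 tumors, established by inoculating 5×10^6 cells 8 to 10 days beforehand. Each mouse received 185 kBq of the fluorinated tracer; at least n=3 animals per time point were sacrificed, organs excised, and radioactivity quantified with a γ-counter.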

- Pancreas uptake (% ID/g) (0.25 h p.i.): 11.45 % ID/g
- Pancreas (% ID/g at 1 h p.i.) (1 h p.i.): 3.62 % ID/g
- Tumor (% ID/g at 1 h p.i.) (1 h p.i.): 6.47 % ID/g
- Urine (% ID at 1 h p.i.) (1 h p.i.): 82.1 ± 7.3 % ID
- activity excreted (kidneys/urine) (1 h p.i.): 82.1%
- tumor-to-pancreas ratio (1 h p.i.): 1.8
- T/Blood (1 h post injection): 33.9
- T/Muscle (1 h post injection): 103.4
- Tumor uptake (% ID/g) (2 h p.i.): 7.21 % ID/g
- Tumor uptake (% ID/g) (4 h p.i.): 5.17 % ID/g
- tumor uptake and retention (summary statement) (mouse, in vivo): high tumor uptake and retention
- Adrenals (% Dosis/g) (timepoint 0.25 h): 0.69 % Dosis/g
- Blood (% Dosis/g) (timepoint 0.25 h): 1.28 % Dosis/g
- Bone (% Dosis/g) (timepoint 0.25 h): 0.39 % Dosis/g
- Brain (% Dosis/g) (timepoint 0.25 h): 0.09 % Dosis/g
- Fat (% Dosis/g) (timepoint 0.25 h): 0.16 % Dosis/g
- Gallbladder (% Dosis/g) (timepoint 0.25 h): 2.53 % Dosis/g
- Heart (% Dosis/g) (timepoint 0.25 h): 0.58 % Dosis/g
- Intestine (% Dosis/g) (timepoint 0.25 h): 1.10 % Dosis/g
- Liver (% Dosis/g) (timepoint 0.25 h): 9.02 % Dosis/g
- Muscle (% Dosis/g) (timepoint 0.25 h): 0.26 % Dosis/g
- Ovaries (% Dosis/g) (timepoint 0.25 h): 1.25 % Dosis/g
- Pancreas (% Dosis/g) (timepoint 0.25 h): 11.45 % Dosis/g
- Skin (% Dosis/g) (timepoint 0.25 h): 1.58 % Dosis/g
- Spleen (% Dosis/g) (timepoint 0.25 h): 2.49 % Dosis/g
- Stomach (% Dosis/g) (timepoint 0.25 h): 3.08 % Dosis/g
- Summary: Carcass (timepoint 0.25 h): 9.55
- Summary: organs (timepoint 0.25 h): 36.92
- Tail (% Dosis/g) (timepoint 0.25 h): 3.02 % Dosis/g
- Thyroid (% Dosis/g) (timepoint 0.25 h): 0.78 % Dosis/g
- Tumor (% Dosis/g) (timepoint 0.25 h): 5.55 % Dosis/g
- Tumor/Tissue: Adrenals (timepoint 0.25 h): 8.53
- Tumor/Tissue: Blood (timepoint 0.25 h): 4.49
- Tumor/Tissue: Bone (timepoint 0.25 h): 14.61
- Tumor/Tissue: Brain (timepoint 0.25 h): 62.27
- Tumor/Tissue: Fat (timepoint 0.25 h): 37.81
- Tumor/Tissue: Gallbladder (timepoint 0.25 h): 2.19
- Tumor/Tissue: Heart (timepoint 0.25 h): 9.67
- Tumor/Tissue: Intestine (timepoint 0.25 h): 4.93
- Tumor/Tissue: Kidney (timepoint 0.25 h): 0.36
- Tumor/Tissue: Liver (timepoint 0.25 h): 0.62
- Tumor/Tissue: Lung (timepoint 0.25 h): 3.79
- Tumor/Tissue: Muscle (timepoint 0.25 h): 20.90
- Tumor/Tissue: Ovaries (timepoint 0.25 h): 4.55
- Tumor/Tissue: Pancreas (timepoint 0.25 h): 0.49
- Tumor/Tissue: Skin (timepoint 0.25 h): 3.71
- Tumor/Tissue: Spleen (timepoint 0.25 h): 2.27
- Tumor/Tissue: Stomach (timepoint 0.25 h): 1.75
- Tumor/Tissue: Thyroid (timepoint 0.25 h): 7.48
- Tumor/Tissue: Uterus (timepoint 0.25 h): 2.31
- Uterus (% Dosis/g) (timepoint 0.25 h): 2.54 % Dosis/g
- Summary: urine (timepoint 0.25 h): 50.49
- Summary: Recovery (timepoint 0.25 h): 96.96
- Adrenals (% Dosis/g) (timepoint 0.5 h): 0.57 % Dosis/g
- Blood (% Dosis/g) (timepoint 0.5 h): 0.74 % Dosis/g
- Bone (% Dosis/g) (timepoint 0.5 h): 0.30 % Dosis/g
- Brain (% Dosis/g) (timepoint 0.5 h): 0.07 % Dosis/g
- Fat (% Dosis/g) (timepoint 0.5 h): 0.12 % Dosis/g
- Gallbladder (% Dosis/g) (timepoint 0.5 h): 5.25 % Dosis/g
- Heart (% Dosis/g) (timepoint 0.5 h): 0.38 % Dosis/g
- Intestine (% Dosis/g) (timepoint 0.5 h): 4.00 % Dosis/g
- Liver (% Dosis/g) (timepoint 0.5 h): 5.93 % Dosis/g
- Muscle (% Dosis/g) (timepoint 0.5 h): 0.15 % Dosis/g
- Ovaries (% Dosis/g) (timepoint 0.5 h): 1.06 % Dosis/g
- Pancreas (% Dosis/g) (timepoint 0.5 h): 9.94 % Dosis/g
- Skin (% Dosis/g) (timepoint 0.5 h): 1.08 % Dosis/g
- Spleen (% Dosis/g) (timepoint 0.5 h): 1.94 % Dosis/g
- Stomach (% Dosis/g) (timepoint 0.5 h): 4.18 % Dosis/g
- Summary: Carcass (timepoint 0.5 h): 7.31
- Summary: faeces (timepoint 0.5 h): 0.10
- Summary: organs (timepoint 0.5 h): 33.35
- Tail (% Dosis/g) (timepoint 0.5 h): 1.81 % Dosis/g
- Thyroid (% Dosis/g) (timepoint 0.5 h): 0.65 % Dosis/g
- Tumor (% Dosis/g) (timepoint 0.5 h): 6.91 % Dosis/g
- Tumor/Tissue: Adrenals (timepoint 0.5 h): 13.61
- Tumor/Tissue: Blood (timepoint 0.5 h): 9.81
- Tumor/Tissue: Bone (timepoint 0.5 h): 22.54
- Tumor/Tissue: Brain (timepoint 0.5 h): 92.44
- Tumor/Tissue: Fat (timepoint 0.5 h): 64.26
- Tumor/Tissue: Gallbladder (timepoint 0.5 h): 1.36
- Tumor/Tissue: Heart (timepoint 0.5 h): 20.04
- Tumor/Tissue: Intestine (timepoint 0.5 h): 4.66
- Tumor/Tissue: Kidney (timepoint 0.5 h): 0.79
- Tumor/Tissue: Liver (timepoint 0.5 h): 1.27
- Tumor/Tissue: Lung (timepoint 0.5 h): 7.67
- Tumor/Tissue: Muscle (timepoint 0.5 h): 45.35
- Tumor/Tissue: Ovaries (timepoint 0.5 h): 6.59
- Tumor/Tissue: Pancreas (timepoint 0.5 h): 0.68
- Tumor/Tissue: Skin (timepoint 0.5 h): 6.42
- Tumor/Tissue: Spleen (timepoint 0.5 h): 3.60
- Tumor/Tissue: Stomach (timepoint 0.5 h): 2.18
- Tumor/Tissue: Thyroid (timepoint 0.5 h): 10.73
- Tumor/Tissue: Uterus (timepoint 0.5 h): 5.85
- Uterus (% Dosis/g) (timepoint 0.5 h): 1.38 % Dosis/g
- Summary: urine (timepoint 0.5 h): 57.06
- Summary: Recovery (timepoint 0.5 h): 97.82
- Adrenals (% Dosis/g) (timepoint 1.0 h): 0.27 % Dosis/g
- Blood (% Dosis/g) (timepoint 1.0 h): 0.19 % Dosis/g
- Bone (% Dosis/g) (timepoint 1.0 h): 0.16 % Dosis/g
- Brain (% Dosis/g) (timepoint 1.0 h): 0.05 % Dosis/g
- Fat (% Dosis/g) (timepoint 1.0 h): 0.03 % Dosis/g
- Gallbladder (% Dosis/g) (timepoint 1.0 h): 8.20 % Dosis/g
- Heart (% Dosis/g) (timepoint 1.0 h): 0.11 % Dosis/g
- Intestine (% Dosis/g) (timepoint 1.0 h): 0.91 % Dosis/g
- Liver (% Dosis/g) (timepoint 1.0 h): 2.17 % Dosis/g
- Muscle (% Dosis/g) (timepoint 1.0 h): 0.07 % Dosis/g
- Ovaries (% Dosis/g) (timepoint 1.0 h): 0.79 % Dosis/g
- Pancreas (% Dosis/g) (timepoint 1.0 h): 3.62 % Dosis/g
- Skin (% Dosis/g) (timepoint 1.0 h): 0.61 % Dosis/g
- Spleen (% Dosis/g) (timepoint 1.0 h): 1.54 % Dosis/g
- Stomach (% Dosis/g) (timepoint 1.0 h): 0.94 % Dosis/g
- Summary: Carcass (timepoint 1.0 h): 3.58
SMILES: N[C@@H](CCC(Cc1ccc(OCC[18F])cc1)C(=O)O)C(=O)O (stereo partly drawn) [[^18F]-12] [(2S)-2-Amino-5-[4-(2-[^18F]fluoroethoxy)benzyl]hexanedioic acid]
